# From patent publication US10899788B2, “Cyclic phosphate substituted nucleoside compounds and methods of use thereof for the treatment of viral diseases” (MERCK SHARP & DOHME CORP., priority 2016, dated 2021)
# Assays:
# [1] = system: HCV replicon cells (1b-Con1); assay: Replicon activity assay (cell-based anti-HCV activity); settings: Hepatitis C virus, 72 h, three days post-dosing, replicon RNA level by real-time RT-PCR, read-out: EC50 (1b) Range
# Experimental: (§1) To measure cell-based anti-HCV activity of the compounds of the present invention, replicon cells (1b-Con1) are seeded at 5000 cells/well in 96-well plates one day prior to treatment with a compound of the invention. Various concentrations of a test compound of the invention in DMSO are then added to the replicon cells, with the final concentration of DMSO at 0.5% and fetal bovine serum at 10% in the assay media. Cells are harvested three days post-dosing, and the replicon RNA level is determined using real-time RT-PCR (Taqman assay) with GAPDH RNA as endogenous control. EC50 values are calculated from experiments with 10 serial twofold dilutions of the inhibitor in triplicate. To measure cytotoxicity in replicon cells of an inhibitor, an MTS assay is performed according to the manufacturer's protocol for CellTiter 96 Aqueous One Solution Cell Proliferation Assay (Promega, Cat #G3580) three days post dosing on cells treated identically as in replicon activity assays. […] Cytotoxicity in other types of cells may be measured using the same MTS protocol.
# (§2) Data were obtained using this method for selected compounds of the present invention, and are set forth below in Table 2.
# [2] = Cytotoxicity assay in replicon cells (MTS); format: cell-based; settings: HCV replicon cells (1b-Con1), three days post dosing, head prints EDU, method MTS, read-out: CC50 (EDU) Range
# Experimental: as §1, §2
Compound,EC50 [1] [µM],CC50 at 3 days [2] [µM]
C#C[C@]1(C)[C@@H]2O[P@](=O)(OCCC(=O)OC(C)C)OC[C@H]2O[C@H]1n1ccc(=O)[nH]c1=O [Compound 26B],> 10,> 50
CC(C)OC(=O)CCO[P@@]1(=O)OC[C@H]2O[C@@H](n3ccc(=O)[nH]c3=O)[C@](C)(N)[C@@H]2O1 [Compound 28A],> 10,> 50
CC(C)OC(=O)CCO[P@]1(=O)OC[C@H]2O[C@@H](n3ccc(=O)[nH]c3=O)[C@](C)(N)[C@@H]2O1 [Compound 28B],> 10,> 50
